Assay results as given in patent US20230295197A1, “STAT5 and STAT6 Degraders and Uses Thereof” (REGENTS OF THE UNIVERSITY OF MICHICAN, priority 2022, published 2023).
Like-named read-outs stand apart in the source and are kept apart here.

Test system: STAT5
Assay: Immunoblotting (Western blot) analysis of STAT5 degradation efficiency of degraders in treated cells
Type: cell-based
Procedure: Evaluation of the degradation efficiency of degraders may be accomplished by immunoblotting analysis. The representative general protocol is the following:
Cells are maintained in the appropriate culture medium with 10% FBS at 37° C. and an atmosphere of 5% CO2. Cell lines are used within three months of thawing fresh vials. Cells are lysed 1× Cell Lysis Buffer (Cell Signaling Technology, #9803), resolved by SDS-PAGE NuPAGE gel (Thermo Fisher Scientific), and transferred to a PVDF membrane (Millipore). Membranes are blocked using Odyssey TBS Blocker Buffer (LI-COR). IRDye 680RD and 800CW Dye-labeled secondary antibodies (LI-COR) are used. The washed membranes are scanned using Odyssey CLx imager (LI-COR). The intensity of Western blot signaling is quantitated using the Odyssey software. Primary antibodies used are: STAT5 Rabbit mAb (Cell Signaling Technology, #94205), STAT6 Rabbit mAb (Cell Signaling Technology, #5397) and GAPDH mouse monoclonal antibody (Santa Cruz Biotechnology, sc-47724).
To evaluate the degradation efficiency of degraders, immunoblotting analysis was performed. The general protocol is the following.
About 1 million cells for each data point were treated with compounds at indicated concentrations and durations. Untreated and treated cells in cell culture medium were transferred into tubes, followed by centrifugation at 3,000 rpm and 4° C. for 6 min Supernatants were removed from tubes and radioimmunoprecipitation assay (RIPA) lysis buffer supplemented with 1% protease inhibitor cocktail (Fisher Scientific cat. PI87786) and phosphatase inhibitor (Roche cat. 04906837001) were added to tubes containing the remaining cell pellets. The tubes were then left on ice for 30 min and placed in a −80° C. freezer. Subsequently they were thawed in 37° C. water, then centrifuged at 14,000 rpm for 15 min and the cell lysates transferred to new tubes. The concentration of total proteins in each tube was calculated using the Pierce BCA protein Assay kit (cat. 23225). Based on the calculated protein concentration, cell lysates containing approximately the same amount of proteins were transferred to new tubes, then distilled water and 4× Protein Sample Loading Buffer for Western Blots (LI-COR cat. 928-40004) supplemented with 20% of mercaptoethanol (Sigma Aldrich cat. M6250) were added on ice. The cell lysates were then reduced and denatured at 95° C. for 5 min. From the tubes containing cell lysates an equal amount of protein samples (20-40 μg) was loaded into precast 8%, 10%, 4%-12%, or 4%-20% Tris-glycine gels (Novex) filled with Tris-glycine SDS running buffer. After the proteins were resolved, they were transferred onto Immobile-FL PVDF Membrane (Millipore Sigma cat. IPFL00010), using Mini Trans-Blot Electrophoretic Transfer Cell (Bio-Rad 1703930). The membranes were blocked with Intercept Blocking Buffer (LI-COR cat. 927-70001) in LI-COR Western Blot boxes for 1 h at rt. The membranes were washed with 1× Tris-buffered saline-Tween-20 (TBST, 1× solution was made from 20×TBST solution, ThermoFisher Scientific cat. 28360) for 5 min 4 times. The membranes were incubated overnight at 4° C. in Intercept Blocking Buffer supplemented with primary antibodies (normally antibody:buffer 1:1000) and Tween-20. The membranes were washed with TBST for 5 min 4 times and were incubated with Intercept Blocking Buffer supplemented with IRDye 800CE Secondary Antibodies, IRDye 680RD Secondary Antibodies (LI-COR biosciences), Tween-20, and 10% SDS solution, for 1 h at rt. The membranes were then washed with TBST for 5 min 4 times and rinsed with deionized water before drying and scanning with Odyssey Dlx Amazing System (LI-COR). The immunoblots were finally quantified by the software.

[1] = MOLM-16 cells, numeric bound, read-out: DC50 S5 MOLM-16
[2] = SKNO1 cells, read-out: DC50 S5 SKNO1
[3] = KU-812 cells, read-out: DC50 S5 KU-812

| SMILES | DC50 [1] [nM] | DC50 [2] [nM] | DC50 (MOLM-16 cells, class symbols, read-out: DC50 S5 MOLM-16) [nM] | DC50 [3] [nM] |
| --- | --- | --- | --- | --- |
| CC(C)(C)[C@H](NC(=O)c1cc2cc(C(F)(F)P(=O)(O)O)ccc2s1)C(=O)N1CCC[C@H]1C(=O)N(CCC(=O)NCCCCC#Cc1cccc2c1CN(C1CCC(=O)NC1=O)C2=O)c1ccc(Cl)cc1 (stereo partly drawn) [Compound 638, ((2-(((2S)-1-((2S)-2-((4-chlorophenyl)(3-((6-(2-(2,6-dioxopiperidin-3-yl)-1-oxoisoindolin-4-yl)hex-5-yn-1-yl)amino)-3-oxopropyl)carbamoyl)pyrrolidin-1-yl)-3,3-dimethyl-1-oxobutan-2-yl)carbamoyl)benzo[b]thiophen-5-yl)difluoromethyl)phosphonic acid] | – | – | 100 to 1000 | – |
| CC(C)(C)[C@H](NC(=O)c1cc2cc(C(F)(F)P(=O)(O)O)ccc2s1)C(=O)N1CCC[C@H]1C(=O)N(CC(=O)NCCCCC#Cc1cccc2c1CN(C1CCC(=O)NC1=O)C2=O)c1ccc(Cl)cc1 (stereo partly drawn) [Compound 641, ((2-(((2S)-1-((2S)-2-((4-chlorophenyl)(2-((6-(2-(2,6-dioxopiperidin-3-yl)-1-oxoisoindolin-4-yl)hex-5-yn-1-yl)amino)-2-oxoethyl)carbamoyl)pyrrolidin-1-yl)-3,3-dimethyl-1-oxobutan-2-yl)carbamoyl)benzo[b]thiophen-5-yl)difluoromethyl)phosphonic acid] | > 300 | > 10000 | – | – |
| CC(C)(C)[C@H](NC(=O)c1cc2cc(C(F)(F)P(=O)(O)O)ccc2s1)C(=O)N1CCC[C@H]1C(=O)N(CCC(=O)N1CCC(Nc2cccc3c2CN(C2CCC(=O)NC2=O)C3=O)CC1)c1ccc(Br)cc1 (stereo partly drawn) [Compound 615, ((2-(((2S)-1-((2S)-2-((4-bromophenyl)(3-(4-((2-(2,6-dioxopiperidin-3-yl)-1-oxoisoindolin-4-yl)amino)piperidin-1-yl)-3-oxopropyl)carbamoyl)pyrrolidin-1-yl)-3,3-dimethyl-1-oxobutan-2-yl)carbamoyl)benzo[b]thiophen-5-yl)difluoromethyl)phosphonic acid] | > 300 | – | – | > 10000 |
| CC(C)(C)[C@H](NC(=O)c1cc2cc(C(F)(F)P(=O)(O)O)ccc2s1)C(=O)N1C[C@H](OCc2ccc(C#Cc3cccc4c3CN(C3CCC(=O)NC3=O)C4=O)cc2)C[C@H]1C(=O)Nc1ncc(-c2ccccc2)s1 (stereo partly drawn) [Compound 632, ((2-(((2S)-1-((2S,4R)-4-((4-((2-(2,6-dioxopiperidin-3-yl)-1-oxoisoindolin-4-yl)ethynyl)benzyl)oxy)-2-((5-phenylthiazol-2-yl)carbamoyl)pyrrolidin-1-yl)-3,3-dimethyl-1-oxobutan-2-yl)carbamoyl)benzo[b]thiophen-5-yl)difluoromethyl)phosphonic acid] | > 300 | – | – | – |
| CCN1CC[C@H]2CC[C@@H](C(=O)N(CCC(=O)NCC#Cc3cccc4c3CN(C3CCC(=O)NC3=O)C4=O)c3ccc(Br)cc3)N2C(=O)[C@@H](NC(=O)c2cc3cc(C(F)(F)P(=O)(O)O)ccc3s2)C1 (stereo partly drawn) [Compound 625, ((2-(((5S,8S,10aR)-8-((4-bromophenyl)(3-((3-(2-(2,6-dioxopiperidin-3-yl)-1-oxoisoindolin-4-yl)prop-2-yn-1-yl)amino)-3-oxopropyl)carbamoyl)-3-ethyl-6-oxodecahydropyrrolo[1,2-a][1,5]diazocin-5-yl)carbamoyl)benzo[b]thiophen-5-yl)difluoromethyl)phosphonic acid] | > 300 | – | – | – |

Other lines, results leading:

| DC50 [1] [nM] | DC50 [2] [nM] | DC50 (MOLM-16 cells, class symbols, read-out: DC50 S5 MOLM-16) [nM] | DC50 [3] [nM] | SMILES |
| --- | --- | --- | --- | --- |
| > 300 | > 10000 | – | – | CC(C)(C)[C@H](NC(=O)c1cc2cc(C(F)(F)P(=O)(O)O)ccc2s1)C(=O)N1CCC[C@H]1C(=O)N(CCC(=O)NCCCC#Cc1cccc2c1CN(C1CCC(=O)NC1=O)C2=O)c1cccc(C(F)(F)F)c1 (stereo partly drawn) [Compound 645, ((2-(((2S)-1-((2S)-2-((3-((5-(2-(2,6-dioxopiperidin-3-yl)-1-oxoisoindolin-4-yl)pent-4-yn-1-yl)amino)-3-oxopropyl)(3-(trifluoromethyl)phenyl)carbamoyl)pyrrolidin-1-yl)-3,3-dimethyl-1-oxobutan-2-yl)carbamoyl)benzo[b]thiophen-5-yl)difluoromethyl)phosphonic acid] |
| > 300 | – | – | – | CCN1CC[C@H]2CC[C@@H](C(=O)N(CCC(=O)NCCCCCC#Cc3cccc4c3CN(C3CCC(=O)NC3=O)C4=O)c3ccc(Br)cc3)N2C(=O)[C@@H](NC(=O)c2cc3cc(C(F)(F)P(=O)(O)O)ccc3s2)C1 (stereo partly drawn) [Compound 629, ((2-(((5S,8S,10aR)-8-((4-bromophenyl)(3-((7-(2-(2,6-dioxopiperidin-3-yl)-1-oxoisoindolin-4-yl)hept-6-yn-1-yl)amino)-3-oxopropyl)carbamoyl)-3-ethyl-6-oxodecahydropyrrolo[1,2-a][1,5]diazocin-5-yl)carbamoyl)benzo[b]thiophen-5-yl)difluoromethyl)phosphonic acid] |
| > 300 | 1000 to 10000 | – | 1000 to 10000 | CC(C)(C)[C@H](NC(=O)c1cc2cc(C(F)(F)P(=O)(O)O)ccc2s1)C(=O)N1CCC[C@H]1C(=O)N(CCC(=O)NCCCC#Cc1cccc2c1CN(C1CCC(=O)NC1=O)C2=O)c1ccc(Cl)cc1 (stereo partly drawn) [Compound 635, ((2-(((2S)-1-((2S)-2-((4-chlorophenyl)(3-((5-(2-(2,6-dioxopiperidin-3-yl)-1-oxoisoindolin-4-yl)pent-4-yn-1-yl)amino)-3-oxopropyl)carbamoyl)pyrrolidin-1-yl)-3,3-dimethyl-1-oxobutan-2-yl)carbamoyl)benzo[b]thiophen-5-yl)difluoromethyl)phosphonic acid] |
| > 300 | – | – | – | CCN1CC[C@H]2CC[C@@H](C(=O)N(CCC(=O)NCCC#Cc3cccc4c3CN(C3CCC(=O)NC3=O)C4=O)c3ccc(Br)cc3)N2C(=O)[C@@H](NC(=O)c2cc3cc(C(F)(F)P(=O)(O)O)ccc3s2)C1 (stereo partly drawn) [Compound 626, ((2-(((5S,8S,10aR)-8-((4-bromophenyl)(3-((4-(2-(2,6-dioxopiperidin-3-yl)-1-oxoisoindolin-4-yl)but-3-yn-1-yl)amino)-3-oxopropyl)carbamoyl)-3-ethyl-6-oxodecahydropyrrolo[1,2-a][1,5]diazocin-5-yl)carbamoyl)benzo[b]thiophen-5-yl)difluoromethyl)phosphonic acid] |
| > 300 | > 10000 | – | – | CC(C)(C)[C@H](NC(=O)c1cc2cc(C(F)(F)P(=O)(O)O)ccc2s1)C(=O)N1CCC[C@H]1C(=O)N(CCC(=O)NCCCC#Cc1cccc2c1CN(C1CCC(=O)NC1=O)C2=O)c1ccc(Cl)c(F)c1 (stereo partly drawn) [Compound 636, ((2-(((2S)-1-((2S)-2-((4-chloro-3-fluorophenyl)(3-((5-(2-(2,6-dioxopiperidin-3-yl)-1-oxoisoindolin-4-yl)pent-4-yn-1-yl)amino)-3-oxopropyl)carbamoyl)pyrrolidin-1-yl)-3,3-dimethyl-1-oxobutan-2-yl)carbamoyl)benzo[b]thiophen-5-yl)difluoromethyl)phosphonic acid] |
| > 300 | – | – | – | CC(C)(C)[C@H](NC(=O)c1cc2cc(C(F)(F)P(=O)(O)O)ccc2s1)C(=O)N1C[C@H](OCc2ccccc2)C[C@H]1C(=O)N(CCC(=O)NCCC#Cc1cccc2c1CN(C1CCC(=O)NC1=O)C2=O)c1ccc(Br)cc1 (stereo partly drawn) [Compound 617, ((2-(((2S)-1-((2S,4R)-4-(benzyloxy)-2-((4-bromophenyl)(3-((4-(2-(2,6-dioxopiperidin-3-yl)-1-oxoisoindolin-4-yl)but-3-yn-1-yl)amino)-3-oxopropyl)carbamoyl)pyrrolidin-1-yl)-3,3-dimethyl-1-oxobutan-2-yl)carbamoyl)benzo[b]thiophen-5-yl)difluoromethyl)phosphonic acid] |
